Measurements: ChEMBL document CHEMBL3507680, “University of Dundee, Gates Library screen for HepG2 cell viability”

Assay: Human HepG2 cell viability assay in 384 well format
Type: toxicity, cell-based
Set-up: dose 125 nL, time 70.5 hour; cytotoxicity at 70.5 h: concentration not given beside the values
Conditions: HepG2 cells, read-out: Inhibition

Compound | cytotoxicity at 70.5 h [%]
COC[C@@]12CC[C@@H](N3CCOCC3)C[C@H]1CCN(c1cc(C)ccn1)C2 | -1.61
CCOc1ccc(CN2C(=O)CC(CC)(CC)C2=O)nc1 | 0.923
Cn1cc(CN2CCCN(C(=O)c3cc(Cl)cn3C)CC2)cn1 | 38.5
Cc1ncsc1CCC(=O)N1CCn2cccc2C1c1cccnc1 (configuration not stated) | -3.49
O=C(CN1CCOC(Cn2cccn2)C1)NCCc1ccc(F)cc1 (configuration not stated) | -13.9
Cn1cc(CN2CCOC3(CCCN(C(=O)c4ccco4)C3)C2)cn1 (configuration not stated) | -6.59
COc1ccccc1Cc1nnc(SCCS(C)(=O)=O)o1 | -7.42
Fc1ccc(F)c(CN2CCC(c3cc4ncccc4cn3)CC2)c1 | 4.59
Cn1ncc2c(N3CCN4CCCCC4C3)nc(C3CCCC3)nc21 (configuration not stated) | -0.0598
Nc1cccc(-c2cccc3ccnn23)n1 | -6.36
CCOC(C)c1noc(CN2CCNCC2)n1 (configuration not stated) | 13.6
N#Cc1cccc(CNc2cc(CO)ccc2Cl)c1 | -15.1
CC(NC(=O)COc1ccccc1C(=O)O)c1ccc(F)cc1 (configuration not stated) | -9.45
Cc1nc(C(C)NC(=O)NCc2nccn2CC(C)C)cs1 (configuration not stated) | 4.05
CC(=O)Nc1ccc2nc(CN(C)Cc3noc(C)n3)ccc2c1 | -4.56
Cc1ncsc1CCNC(=O)Cn1nc(C)n(Cc2ccccc2)c1=O | -2.97
CCCc1nc(C)c(C(=O)NCC2CCN(C3CC3)C2)s1 (configuration not stated) | 23.6
CCN1CCC(NC(=O)CN2CCCCC2Cn2cncn2)CC1 (configuration not stated) | 0.615
CC(=O)N1CCN(C(=O)CN2CCCC2Cn2nc(C)cc2C)CC1 (configuration not stated) | 11.5
COCCNC(=O)NCCc1ccn(-c2ccccc2)n1 | -10.9
Cc1ccc(NCc2ccc(C#N)cc2)cc1-n1cnnn1 | 10.5

Compound | cytotoxicity at 70.5 h [%]
Cc1ccc(CN2CCc3c(COCC4CC4)nn(C)c3C2)s1 | 21.5
CN(C)CCN(Cc1cccnc1)C(=O)c1ccn(-c2ccccc2)n1 | -3.54
Cc1cc(CN(CCO)Cc2cc(Br)ccc2F)no1 | -17.4
CCCc1nc(CNc2cc(CS(C)(=O)=O)ccc2Cl)no1 | -0.135
Cc1ccc(CNC(=O)N(C)Cc2cnn(C)c2)s1 | -1.07
CCn1cnnc1C1CCN(C(=O)c2cnc3ccccc3n2)CC1 | -16.4
O=C(Cc1ccsc1)N1CCC(c2n[nH]c3nccnc23)CC1 | -8.21
CC(Sc1nncn1C)C(=O)NCCCOc1ccc(F)cc1 (configuration not stated) | -22.5
N#CC1(C(=O)N2Cc3cc(-c4cc[nH]n4)ccc3C2c2cnco2)CC1 (configuration not stated) | 1.75
CCN(CCC(=O)NC1CC1)Cc1ccc(Cl)s1 | -11.3
c1cc(CN2CC[C@@H]3CN(c4cnccn4)C[C@@H]3C2)ccn1 | -3.4
Cc1cc(S(=O)(=O)NCC[S+](C)[O-])c(F)cc1F (configuration not stated) | -2.05
CC(=O)N1CCO[C@@H]2CN(C(=O)c3cc(C)oc3C)CC[C@@H]2C1 | 13
CC(CN1CCOCC1)OC(=O)c1cccc2cn[nH]c12 (configuration not stated) | 12
CN(CCC(F)(F)F)C(=O)[C@H]1CSCN1C(=O)OC(C)(C)C | -1.73
Cc1nc(CN2CCC(CNC(=O)Nc3ccccc3)CC2)oc1C | -6.72
CC(C#N)CN(C)C(=O)CCNC(=O)OCC(F)(F)F (configuration not stated) | -0.113
CCNC(c1ccc(OC)cc1)c1cccnc1 (configuration not stated) | -8.14
COc1ccc(NC(=O)c2ccc(CN3CC[C@H](O)C3)cc2)c(OC)n1 | -7.69
COCCN1CCC(C(=O)N(C)CCOc2ccc(C)cc2Cl)C1 (configuration not stated) | 20.7
CN(Cc1noc(C2CC2)n1)C1CCN(CCn2cc(C#N)cn2)C1 (configuration not stated) | 22.1

Compound | cytotoxicity at 70.5 h [%]
Cc1cccc(NC(=O)[C@@H]2CCCN2CC(=O)N2CCCCCC2)n1 | -4.62
CCO[C@H]1CN(C)C[C@@H]1NC(=O)c1c[nH]nc1C1CCCCC1 | 21.2
c1ccc(COCCN2CCc3[nH]cnc3C2c2ccoc2)cc1 (configuration not stated) | 26
CN(C)CCNC(=O)[C@H]1C[C@@H]2CN(C(=O)NC3CCCC3)C[C@H]1O2 | 5.4
CSc1nsc(NC(=O)N2CCc3ccccc3C2)n1 | -4.59
CCN(CCc1nc2cc(C)ccc2[nH]1)C(=O)COC | -4.93
CCc1nnc2n1CCN(C(=O)c1cnc3c(cnn3C(C)C)c1)C2 | -8.43
O=C1NC2(CCN(Cc3ccccc3Cl)CC2)CC1c1ccccc1 (configuration not stated) | -9.33
CCc1ncc2c(n1)CN(Cc1nc(-c3ccsc3)oc1C)CC2 | 1.83
CC(C)(C)CN1CCCC(O)(CN2CCc3[nH]ncc3C2)C1=O (configuration not stated) | -1.48
Cc1cc(N2CCCC2)c(C#N)c(C)n1 | 17.6
Cc1ocnc1C(=O)N(Cc1cccnc1)C[C@@H]1CCC(=O)N1 | -8.79
COCCC(=O)N1CCC2(CC1)CC(c1ccccc1)CN(C1CC1)C2 (configuration not stated) | 0.742
Cn1nc(C2CCCN(Cc3ccc(F)cc3)C2)c2nccnc21 (configuration not stated) | 5.25
CC(NCCCN1CCCN(C)CC1)C(C)(C)C (configuration not stated) | -11.8
O=C(C1CCOCC1)N1C[C@H]2CCC[C@@]2(COc2cccnc2)C1 | -1.29
O=C1CN(Cc2cn(CC3CCCN(C4CCSCC4)C3)nn2)CCN1 (configuration not stated) | 16.1
NCc1cnn(-c2ccccc2C(=O)NCc2ccccc2Cl)c1 | -2.58
Cn1cnnc1C1CCCN(C(=O)NCCCn2cccn2)C1 (configuration not stated) | -2.61
Nc1nc(N)c2c(n1)OC1(CCN(Cc3nccs3)C1)C2 (configuration not stated) | -6.73
COc1ccc(CN(C)Cc2c(C)noc2C)c(Br)c1OC | -8.43

Compound | cytotoxicity at 70.5 h [%]
COc1ccccc1CNC(=O)CS(=O)(=O)Cc1ccccc1 | -3.93
COCC1c2nnn(C)c2CCN1C(=O)COc1ccccc1C (configuration not stated) | -4.54
C=C/C=c1\c(=C/C)oc2c(NCc3ccccc3)nc(CC)nc12 | 11.2
CN1CCCc2cc(-c3cncn3CCNC3CCS(=O)(=O)C3)ccc21 (configuration not stated) | -4.36
CC(=O)NCC1CCC2(CCN(c3ncc(C(C)=O)c(C)n3)CC2)O1 (configuration not stated) | -2.5
O=C(Cn1ccc2c(Cl)cccc21)Nc1nc[nH]n1 | -11.2
CCCC1COCCN1Cc1ccc(S(=O)(=O)NC)cc1 (configuration not stated) | 7.3
Cc1ncc(CN2CCC(N(C)Cc3noc(C4CC4)n3)C2)s1 (configuration not stated) | 19
CCOC(=O)c1ccc(Nc2ccc(OC)c(N3CCCC3=O)c2)nc1 | -14.4
O=C(Nc1ccccc1OCCc1ccccn1)N1CCOCC1 | -13.5
CCCN1CCCn2nc(CNS(=O)(=O)c3cccc(C#N)c3)cc2C1 | -12.6
CN1CC(=O)N(c2cccc(F)c2)CC12CCN(Cc1cncn1C)C2 (configuration not stated) | -4.15
CC(NC1(CNS(C)(=O)=O)CCOCC1)c1ccccc1 (configuration not stated) | -8.35
Cc1ccc(C(O)CNCc2c(C(C)C)nn(C)c2N(C)C)cc1 (configuration not stated) | 0.581
NC(=O)NC(=O)CCN1CCN(c2nccs2)CC1 | 19.6
COc1ccsc1C(=O)NCCN1CCOCC1 | -7.25
COc1c(CNC(c2ccccc2F)c2nccn2C)c(C)nn1C (configuration not stated) | -4.51
O=C(CCn1ccc2ccccc21)N1CCN(Cc2cccnc2)CC1 | 17.7
O=C(Nc1cccc(C(F)(F)F)c1)C1CC(=O)N(Cc2ccccn2)C1 (configuration not stated) | 34.8
